The target in assay [1] is T1, WT NS (neuroserpin) (Homo sapiens, UniProt Q99574, H138C/W154C).
T1 construct: gene SERPINI1; N-terminal 6-His tag, pET28b, expressed in E. coli BL21(DE3), monomeric
T1 sequence (Q99574 17-410 H138C/W154C): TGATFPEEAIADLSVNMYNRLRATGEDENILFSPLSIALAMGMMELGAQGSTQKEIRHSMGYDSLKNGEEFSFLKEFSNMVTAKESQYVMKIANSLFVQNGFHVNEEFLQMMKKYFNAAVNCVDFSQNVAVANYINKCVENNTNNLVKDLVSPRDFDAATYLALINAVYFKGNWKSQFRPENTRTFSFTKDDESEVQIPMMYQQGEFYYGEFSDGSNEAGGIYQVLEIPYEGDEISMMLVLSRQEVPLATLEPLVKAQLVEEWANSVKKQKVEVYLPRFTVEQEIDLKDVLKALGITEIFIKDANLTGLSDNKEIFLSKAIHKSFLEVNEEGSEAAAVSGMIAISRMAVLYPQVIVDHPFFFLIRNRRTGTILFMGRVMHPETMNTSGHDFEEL
Nature of the assay: Bis-ANS fluorescence, excitation […] nm. The conditions noted are these: 2 uM protein, Bis-ANS 1:5 ratio (10 uM), 25 °C, surface hydrophobicity probe. Type of assay: binding.

In assay [2] the target is T2, WT NS (neuroserpin) (Homo sapiens, UniProt Q99574, H138C).
T2 construct: gene SERPINI1; N-terminal 6-His tag, pET28b, expressed in E. coli BL21(DE3), monomeric
T2 sequence (Q99574 17-410 H138C): T1 sequence (Q99574 17-410 H138C/W154C) with C138W
As to the kind of experiment: Bis-ANS fluorescence, excitation […] nm. Type of assay: binding. The settings on record: 2 uM protein, Bis-ANS 1:5 ratio (10 uM), 25 °C, surface hydrophobicity probe.

Results on one compound are retold here after article PMC9760604, “Strand 1A variant in neuroserpin shows increased aggregation and no loss of inhibition: implication in ameliorating polymerization to retain activity” (Bioscience Reports, 2022).

Where a chain is given by its changes, count along the chain named.

Consider `O=S(=O)(O)c1cccc2c(-c3ccc(Nc4ccccc4)c4c(S(=O)(=O)O)cccc34)ccc(Nc3ccccc3)c12` [Bis-ANS, 4,4-Bis-1-anilino naphthalene 8-sulfonate], for which the “Bis-ANS fluorescence, excitation 390 nm” value on WT NS (neuroserpin) [1] is “The double variant showed a decreased fluoroscence emission intensity, and a very high surface hydrophobicity”; at WT NS (neuroserpin) [2], “More hydrophobic exposure was observed due to increase Bis-ANS fluorescence in the H138C variant”.
